From ChEMBL document CHEMBL4261618, “Monodisperse oligoethylene glycols modified Propofol prodrugs” (Bioorg Med Chem Lett, 2018) come the findings set out here.

The term EC50 denotes the concentration at which the effect is half-maximal. A higher EC50 goes with lower potency in that assay. A word on the solubility: it is the dissolved amount per volume that the medium holds.

Molecules are shown by their SMILES. Values after ≈ are worked out from the molar mass of the structure shown.

In data set [1] the test system is A549. The experiment in a line: Cytotoxicity against human A549 cells after 24 hrs by MTT assay. It is filed as cell-based. Particulars: A549, 24 h.
Data set [2] is described as follows: Solubility of the compound in pH 7.4 PBS buffer by ultraviolet spectroscopic method. Format: physicochemical.
Data set [3] is described as follows: Cytotoxicity against human A549 cells assessed as cell viability at 0.05 mM after 24 hrs by MTT assay relative to control. It is filed as cell-based. The settings on record: read-out: Activity. In general terms: Tetrazolium assays rely on reduction of a dye to a coloured formazan, in cell work by metabolically active cells.
The subject of data set [4] is L929. Put plainly: Cytotoxicity against mouse L929 cells after 24 hrs by MTT assay. Format: cell-based. The settings on record: L929, 24 h.
A short description of data set [5]: Cytotoxicity against mouse L929 cells assessed as cell viability at 0.05 mM after 24 hrs by MTT assay relative to control. Format: cell-based. Particulars: read-out: Activity.
In data set [6] the test system is L929. Put plainly: Cytotoxicity against mouse L929 cells assessed as reduction in cell viability up to 4 mM after 24 hrs by MTT assay. Format: cell-based. The settings on record: l929, 24 h.
Data set [7] concerns A549. The experiment in a line: Cytotoxicity against human A549 cells assessed as reduction in cell viability up to 4 mM after 24 hrs by MTT assay. It is filed as cell-based. The settings on record: a549, 24 h.
Data set [8] deals with Rattus norvegicus. Put plainly: Anesthetic activity in Sprague-Dawley rat assessed as anesthetic duration time at 0.073 mmol/kg, iv for 10 secs. It is filed as functional.
For data set [9], the system named is Rattus norvegicus. Put plainly: Anesthetic activity in Sprague-Dawley rat assessed as onset time for loss of righting reflex at 0.073 mmol/kg, iv for 10 secs. It is filed as functional.
Data set [10] in a line: Critical micellar concentration of the compound in pyrene/acetone solution ultrasonicated for 30 mins followed by incubation in water bath at 60 degC for 40 mins and subsequent incubation at 40 degC for 12 hrs by fluorescence assay. Particulars: buffer. Format: physicochemical.
In data set [11] the test system is Rattus norvegicus. Put plainly: Toxicity in Sprague-Dawley rat assessed as death at 0.073 mmol/kg, iv for 10 secs. Format: organism-based. The settings on record: in vivo, 10 s.
A short description of data set [12]: Prodrug activation in Sprague-Dawley rat plasma assessed as propofol release at 4 mg after 1 mins by HPLC analysis. It is filed as cell-free.
Data set [13] is described as follows: Prodrug activation in Sprague-Dawley rat plasma assessed as propofol release at 4 mg after 20 mins by HPLC analysis. Format: cell-free.
Data set [14] can be described thus: Prodrug activation in Sprague-Dawley rat plasma assessed as propofol release at 4 mg after 24 hrs by HPLC analysis. Format: cell-free.
Data set [15] is described as follows: Prodrug activation in Sprague-Dawley rat plasma assessed as propofol release at 4 mg after 5 mins by HPLC analysis. It is filed as cell-free.
A short description of data set [16]: Solubility of the compound in pH 7.4 PBS buffer containing 60% methanol by ultraviolet spectroscopic method. Format: physicochemical.

For `COCCOCCOCCOCCOC(=O)Oc1c(C(C)C)cccc1C(C)C`, the EC50 was 1360 µM in the data set on A549 [1] and 1390 µM in the data set on L929 [4]. In data set [2], this compound registered a solubility of 380 µg/mL (≈ 921 µM). For the same compound, the viability at 24 h, 50 µM in data set [3] and in data set [5] was over 90% in each case.
Consider `COCCOCCOCCOCCOCCOCCOC(=O)Oc1c(C(C)C)cccc1C(C)C`, for which the EC50 was 730 µM in the data set on A549 [1] and 510 µM with L929 [4]. In data set [2], the solubility was 830 µg/mL (≈ 1660 µM). Also, the viability at 24 h, 50 µM in data set [3] and in [5] was over 90% each time.
In the case of `COCCOCCOCCOCCOCOc1c(C(C)C)cccc1C(C)C`, the results for the EC50 in the data set with A549 [1] and with L929 [4] were 1730 µM and 900 µM, respectively. This compound showed a solubility in data set [2] of 570 µg/mL (≈ 1430 µM). Also, the viability at 24 h, 50 µM in [3] and in [5] was over 90% throughout.
On to `COCCOCCOCCOCCOCCOCCOCCOCCOCCOCCO`, for which the Activity result in the data set with L929 [6] and in the data set with A549 [7] was “Non-Toxic” each time.
For the compound `CC(C)c1cccc(C(C)C)c1O` [PROPOFOL], the EC50 in the data set with A549 [1] is 9550 µM; in the data set on L929 [4], 4730 µM. Moreover, the Time is on record as 10.3 min with Rattus norvegicus [8] and 0 s with Rattus norvegicus [9].
As for `COCCOCCOCCOCCOCCOCCOCCOCOc1c(C(C)C)cccc1C(C)C`, in data set [10], the CMC was determined as 0.6 mM. Also, the EC50 in the data set with A549 [1] worked out at 500 µM; in the data set on L929 [4], 130 µM. Also, in data set [2], the concentration in solution (solubility) came to 55400 µg/mL (≈ 104000 µM). The viability at 24 h, 50 µM in data set [3] and in [5] was over 90% each time. The Activity entry in the data set on Rattus norvegicus [11] was “Toxic”.
Consider `COCCOCCOCCOCCOCCOCCOCOc1c(C(C)C)cccc1C(C)C`, for which the EC50 with A549 [1] is 510 µM; with L929 [4], 140 µM. The solubility in data set [2] worked out at 1250 µg/mL (≈ 2570 µM). In addition, the viability at 24 h, 50 µM in data set [3] and in data set [5] was over 90% each time.
As to `COCCOCCOCCOCCOCCOCCOCCOCC(=O)Oc1c(C(C)C)cccc1C(C)C`, the CMC in data set [10] was found to be 1.3 mM. The EC50 in the data set with A549 [1] was determined as 520 µM; with L929 [4] it was 120 µM. The values for the Time in the data set on Rattus norvegicus [8] and with Rattus norvegicus [9] were 10.5 min and 0 s, respectively. The compound further had a solubility in data set [2] of over 216000 µg/mL. Also, the viability at 24 h, 50 µM in [3] and in [5] was over 90% each time. Further, in data set [12], the Drug metabolism result was “Metabolite_Detected”.
With `COCCOCCOCCOC(=O)Oc1c(C(C)C)cccc1C(C)C`, the 50% effective concentration (EC50) in the data set with A549 [1] turned out to be 2130 µM; in the data set on L929 [4] it was 2290 µM. The concentration in solution in data set [2] (solubility) was 190 µg/mL (≈ 516 µM). Moreover, the viability at 24 h, 50 µM in data set [3] and in data set [5] was over 90% in each case.
For the compound `COCCOCCOCCOCCOCCOCCOCC(=O)Oc1c(C(C)C)cccc1C(C)C`, the EC50 with A549 [1] came out at 520 µM; with L929 [4], 110 µM. In addition, in [2], the solubility was found to be 2020 µg/mL (≈ 3920 µM). The viability at 24 h, 50 µM in data set [3] and in data set [5] was over 90% each time.
As to `COCCOCCOCCOCCOCCOCCOCCOCCOCCOCCOC(=O)Oc1c(C(C)C)cccc1C(C)C`, the values for the EC50 in the data set with A549 [1] and in the data set with L929 [4] were 400 µM and 420 µM, respectively. Also, the Time with Rattus norvegicus [8] came out at 5.6 min; in the data set with Rattus norvegicus [9] it was 0 s. In [2], the solubility is over 315000 µg/mL. The viability at 24 h, 50 µM in data set [3] and in data set [5] was over 90% in each case. Moreover, in [13], the Drug metabolism entry is reported as “Metabolite_Detected”.
For the compound `COCCOCCOCCOCCOCC(=O)Oc1c(C(C)C)cccc1C(C)C`, the EC50 with A549 [1] is 630 µM; in the data set on L929 [4], 440 µM. The solubility in [2] was determined as 1580 µg/mL (≈ 3700 µM). Further, the viability at 24 h, 50 µM in data set [3] and in [5] was over 90% in each case.
The compound `COCCOCCOCCOCCOCCOCCOCCOC(=O)Oc1c(C(C)C)cccc1C(C)C` gave a CMC in data set [10] of 1.5 mM. Also, the EC50 in the data set with A549 [1] amounted to 500 µM; in the data set on L929 [4], 110 µM. Further, in data set [2], the solubility was found to be 2730 µg/mL (≈ 5010 µM). Further, the viability at 24 h, 50 µM in data set [3] and in data set [5] was over 90% throughout.
Take `COCCOCCOCCOCCOCCOCCOCCOCCOCCOCCOCOc1c(C(C)C)cccc1C(C)C`: the half-maximal effective concentration (EC50) with A549 [1] turned out to be 610 µM; in the data set with L929 [4], 210 µM. Moreover, the solubility in [2] is over 289000 µg/mL. The viability at 24 h, 50 µM in [3] and in data set [5] was over 90% each time. Moreover, the Drug metabolism result in data set [14] is given as “Metabolite_Notdetected”. Besides, in the data set on Rattus norvegicus [11], the Activity entry is on record as “Toxic”.
Consider `COCCOCCOCCOCCOCCOCCOCCOCCOCCOCCOCC(=O)Oc1c(C(C)C)cccc1C(C)C`, for which the EC50 in the data set with A549 [1] was 600 µM; in the data set with L929 [4], 490 µM. Besides, the Drug metabolism entry in [15] and in data set [14] was “Metabolite_Detected” each time. In addition, the Time stood at 8.5 min with Rattus norvegicus [8] and 0 s in the data set with Rattus norvegicus [9]. The compound further came in with a solubility in data set [2] of over 371000 µg/mL. In addition, the viability at 24 h, 50 µM in [3] and in data set [5] was over 90% each time.
`COCCOCCOCOc1c(C(C)C)cccc1C(C)C`: the EC50 was over 10000 µM in the data set with A549 [1] and 4870 µM with L929 [4]. Besides, the viability at 24 h, 50 µM in [3] and in data set [5] was over 90% throughout. In data set [16], this compound displayed a solubility of 200 µg/mL (≈ 644 µM).
For the compound `COCCOCCOC(=O)Oc1c(C(C)C)cccc1C(C)C`, the EC50 with A549 [1] is over 10000 µM; in the data set on L929 [4], 4600 µM. The viability at 24 h, 50 µM in [3] and in [5] was over 90% throughout. For the same compound, the concentration in solution in data set [16] (solubility) came to 70 µg/mL (≈ 216 µM).
As for `COCCOCCOCCOCC(=O)Oc1c(C(C)C)cccc1C(C)C`, the EC50 in the data set with A549 [1] worked out at 740 µM; in the data set on L929 [4], 650 µM. The amount in solution in data set [2] (solubility) came to 990 µg/mL (≈ 2590 µM). The viability at 24 h, 50 µM in [3] and in data set [5] was over 90% throughout.
Take `COCCOCCOCCO`: the Activity entry in the data set with L929 [6] and in the data set with A549 [7] was “Non-Toxic” each time.
For `COCCOCCOCC(=O)Oc1c(C(C)C)cccc1C(C)C`, the 50% effective concentration (EC50) in the data set on A549 [1] came to 4150 µM; in the data set on L929 [4], 1410 µM. Further, the viability at 24 h, 50 µM in data set [3] and in data set [5] was over 90% each time. This compound also yielded a solubility in data set [16] of 420 µg/mL (≈ 1240 µM).
On to `COCCOCCOCCOCOc1c(C(C)C)cccc1C(C)C`, for which the values for the concentration giving a half-maximal response (EC50) in the data set on A549 [1] and in the data set on L929 [4] were over 10000 µM and 1170 µM, respectively. In addition, the concentration in solution in data set [2] (solubility) came to 280 µg/mL (≈ 790 µM). The viability at 24 h, 50 µM in [3] and in data set [5] was over 90% each time.
